The values that follow come from patent publication US10344025B2, “GLS1 inhibitors for treating disease” (Board of Regents, The University of Texas System, priority 2014, dated 2019).

The structures appear in SMILES notation. A value given as a limit tells only on which side of the number the result lay.

Assay [1] deals with A549 cells. Description: Proliferation Assay (A549 viability, Cell Titer Fluor, 72 hours). As to conditions: Homo sapiens, A549, 72 h. It counts as cell-based. Put shortly: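 A549 cells seeded at 1000 cells/well, rested 24 h, then exposed to compound in 0.5% DMSO for 72 h at 37 °C. Viability read by Cell Titer Fluor fluorescence; IC50 from four-parameter logistic fit.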
Assay [2] addresses purified recombinant human GAC (GLS1) (Homo sapiens (Human), UniProt O94925). Description: GLS1 Enzymatic Activity Assay (dual-coupled enzymatic assay, resorufin/Amplex UltraRed readout).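 Note: glutamate from GAC coupled via glutamate oxidase and peroxidase to resorufin, read as fluorescence (ex 530, em 590 nm) kinetically or at 20 min, four-parameter logistic IC50 fit.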 It counts as biochemical.

Chain of purified recombinant human GAC (GLS1) (O94925 other isoform, or with tags, fused parts or gaps): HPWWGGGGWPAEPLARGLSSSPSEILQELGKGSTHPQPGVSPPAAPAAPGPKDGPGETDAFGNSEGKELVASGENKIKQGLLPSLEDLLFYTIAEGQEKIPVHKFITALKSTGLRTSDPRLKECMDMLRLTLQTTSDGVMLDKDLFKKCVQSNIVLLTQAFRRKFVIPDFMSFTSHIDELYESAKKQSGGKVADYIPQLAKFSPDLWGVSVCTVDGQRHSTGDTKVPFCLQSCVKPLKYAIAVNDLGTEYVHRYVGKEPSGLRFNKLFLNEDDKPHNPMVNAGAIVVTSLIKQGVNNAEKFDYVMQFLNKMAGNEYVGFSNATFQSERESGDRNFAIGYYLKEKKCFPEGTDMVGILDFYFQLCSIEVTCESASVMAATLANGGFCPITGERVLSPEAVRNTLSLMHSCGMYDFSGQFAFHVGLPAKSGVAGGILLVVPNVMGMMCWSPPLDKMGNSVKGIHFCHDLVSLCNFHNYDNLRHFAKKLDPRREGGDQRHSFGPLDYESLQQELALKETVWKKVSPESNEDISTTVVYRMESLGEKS

The compound `COCCNC(=O)c1cn(CCCCc2ccc(NC(=O)Cc3cc(OC(F)(F)F)ccc3F)nn2)nn1` [Example 584, 1-(4-(6-(2-(2-fluoro-5-(trifluoromethoxy)phenyl)acetamido)pyridazin-3-yl)butyl)-N-(2-methoxyethyl)-1H-1,2,3-triazole-4-carboxamide] yielded an EC50 in assay [1] of 100 to 500 nM. The IC50 in assay [2] was less than 100 nM.
The like results for `O=C(Cc1cc(OC(F)(F)F)ccc1F)Nc1ccc(CCCCn2cc(C(=O)NCc3ccccn3)nn2)nn1` [Example 585, 1-(4-(6-(2-(2-fluoro-5-(trifluoromethoxy)phenyl)acetamido)pyridazin-3-yl)butyl)-N-(pyridin-2-ylmethyl)-1H-1,2,3-triazole-4-carboxamide] were, in that order, less than 100 nM and less than 100 nM.
The like results for `O=C(Cc1cc(OC(F)(F)F)ccc1F)Nc1ccc(CCCCn2cc(C(=O)NCc3cccnc3)nn2)nn1` [Example 586, 1-(4-(6-(2-(2-fluoro-5-(trifluoromethoxy)phenyl)acetamido)pyridazin-3-yl)butyl)-N-(pyridin-3-ylmethyl)-1H-1,2,3-triazole-4-carboxamide] were, in that order, less than 100 nM and less than 100 nM.
In assay [1], `O=C(Cc1cc(OC(F)(F)F)ccc1F)Nc1ccc(CCCCn2cc(C(=O)NCc3ccncc3)nn2)nn1` [Example 587, 1-(4-(6-(2-(2-fluoro-5-(trifluoromethoxy)phenyl)acetamido)pyridazin-3-yl)butyl)-N-(pyridin-4-ylmethyl)-1H-1,2,3-triazole-4-carboxamide] came in with an EC50 of less than 100 nM. Further, the IC50 in assay [2] is less than 100 nM.
As to `O=C(Cc1ccccn1)Nc1ccc(CCCCn2cc(C(=O)NCc3cc(OC(F)(F)F)ccc3F)nn2)nn1` [Example 588, N-(2-fluoro-5-(trifluoromethoxy)benzyl)-1-(4-(6-(2-(pyridin-2-yl)acetamido)pyridazin-3-yl)butyl)-1H-1,2,3-triazole-4-carboxamide], the EC50 in assay [1] was less than 100 nM. In addition, the IC50 in assay [2] was less than 100 nM.
Regarding `O=C(Cc1cccnc1)Nc1ccc(CCCCn2cc(C(=O)NCc3cc(OC(F)(F)F)ccc3F)nn2)nn1` [Example 589, N-(2-fluoro-5-(trifluoromethoxy)benzyl)-1-(4-(6-(2-(pyridin-3-yl)acetamido)pyridazin-3-yl)butyl)-1H-1,2,3-triazole-4-carboxamide], the EC50 in assay [1] is less than 100 nM. In assay [2], the IC50 is less than 100 nM.
For `O=C(Cc1ccncc1)Nc1ccc(CCCCn2cc(C(=O)NCc3cc(OC(F)(F)F)ccc3F)nn2)nn1` [Example 590, N-(2-fluoro-5-(trifluoromethoxy)benzyl)-1-(4-(6-(2-(pyridin-4-yl)acetamido)pyridazin-3-yl)butyl)-1H-1,2,3-triazole-4-carboxamide], the EC50 in assay [1] is less than 100 nM. The IC50 in assay [2] was less than 100 nM.
In the case of `O=C(NCc1cc(OC(F)(F)F)ccc1F)c1cn(CCCCc2ccc(NC(=O)C3CC3)nn2)nn1` [Example 591], in assay [1], the EC50 lay in the range of 100 to 500 nM. Besides, the IC50 in assay [2] was less than 100 nM.
For the compound `O=C(Cc1cccc(F)n1)Nc1nnc(CCC(F)Cn2cc(C(=O)NCc3cc(OC(F)(F)F)ccc3F)nn2)s1` (centres unmarked) [Example 592, 1-(2-fluoro-4-(5-(2-(6-fluoropyridin-2-yl)acetamido)-1,3,4-thiadiazol-2-yl)butyl)-N-(2-fluoro-5-(trifluoromethoxy)benzyl)-1H-1,2,3-triazole-4-carboxamide], the EC50 in assay [1] was less than 100 nM. Also, the IC50 in assay [2] is less than 100 nM.
On to `O=C(Cc1cncs1)Nc1nnc(CCC(F)Cn2cc(C(=O)NCc3cc(OC(F)(F)F)ccc3F)nn2)s1` (centres unmarked) [Example 593, 1-(2-fluoro-4-(5-(2-(thiazol-5-yl)acetamido)-1,3,4-thiadiazol-2-yl)butyl)-N-(2-fluoro-5-(trifluoromethoxy)benzyl)-1H-1,2,3-triazole-4-carboxamide], for which the EC50 in assay [1] was less than 100 nM. In addition, the IC50 in assay [2] is less than 100 nM.
For `O=C(Nc1nnc(CCC(F)Cn2cc(C(=O)NCc3cc(OC(F)(F)F)ccc3F)nn2)s1)c1ccncc1` (centres unmarked) [Example 594, N-(5-(3-fluoro-4-(4-((2-fluoro-5-(trifluoromethoxy)benzyl)carbamoyl)-1H-1,2,3-triazol-1-yl)butyl)-1,3,4-thiadiazol-2-yl)isonicotinamide], the EC50 in assay [1] was in the range of 500 to 5000 nM. In addition, the IC50 in assay [2] is less than 100 nM.
The like results for `O=C(NCc1cc(OC(F)(F)F)ccc1F)c1cn(CC(F)CCc2nnc(NC(=O)c3ccccn3)s2)nn1` (centres unmarked) [Example 595, N-(5-(3-fluoro-4-(4-((2-fluoro-5-(trifluoromethoxy)benzyl)carbamoyl)-1H-1,2,3-triazol-1-yl)butyl)-1,3,4-thiadiazol-2-yl)picolinamide] were, in that order, less than 100 nM and less than 100 nM.
The like results for `NC(=O)c1cn(CCCCc2ccc(NC(=O)Cc3cccc(OC(F)(F)F)c3)nn2)nn1` [Example 596, 1-(4-(6-(2-(3-(trifluoromethoxy)phenyl)acetamido)pyridazin-3-yl)butyl)-1H-1,2,3-triazole-4-carboxamide] were, in that order, 100 to 500 nM and less than 100 nM.
The compound `O=C(Cc1cc(OC(F)(F)F)ccc1F)Nc1ccc(CCCCc2nnc(C(=O)NCCO)s2)nn1` [Example 597, 5-(4-(6-(2-(2-fluoro-5-(trifluoromethoxy)phenyl)acetamido)pyridazin-3-yl)butyl)-N-(2-hydroxyethyl)-1,3,4-thiadiazole-2-carboxamide] displayed an EC50 in assay [1] of 100 to 500 nM. In addition, in assay [2], the IC50 was less than 100 nM.
The like results for `CNC(=O)c1nnc(CCCCc2ccc(NC(=O)Cc3cc(OC(F)(F)F)ccc3F)nn2)s1` [Example 598, 5-(4-(6-(2-(2-fluoro-5-(trifluoromethoxy)phenyl)acetamido)pyridazin-3-yl)butyl)-N-methyl-1,3,4-thiadiazole-2-carboxamide] were, in that order, less than 100 nM and less than 100 nM.
Regarding `CC(=O)Nc1ccc(CCCCc2nnc(C(=O)NCc3cccc(OC(F)(F)F)c3)s2)nn1` [Example 599, 5-(4-(6-acetamidopyridazin-3-yl)butyl)-N-(3-(trifluoromethoxy)benzyl)-1,3,4-thiadiazole-2-carboxamide], the EC50 in assay [1] is less than 100 nM. For the same compound, the IC50 in assay [2] is less than 100 nM.
In turn, `CC(=O)Nc1ccc(CCCCc2nnc(C(=O)NCc3cc(OC(F)(F)F)ccc3F)s2)nn1` [Example 600, 5-(4-(6-acetamidopyridazin-3-yl)butyl)-N-(2-fluoro-5-(trifluoromethoxy)benzyl)-1,3,4-thiadiazole-2-carboxamide] gave an EC50 in assay [1] of less than 100 nM. Moreover, the IC50 in assay [2] is less than 100 nM.
In turn, `CC(=O)Nc1ccc(CCCCc2nnc(C(=O)NCc3cc(C(F)(F)F)ccn3)s2)nn1` [Example 601, 5-(4-(6-acetamidopyridazin-3-yl)butyl)-N-((4-(trifluoromethyl)pyridin-2-yl)methyl)-1,3,4-thiadiazole-2-carboxamide] returned an EC50 in assay [1] of less than 100 nM. In addition, the IC50 in assay [2] is less than 100 nM.
For the compound `CC(=O)Nc1ccc(CCCCc2nnc(C(=O)NCc3cncc(C(F)(F)F)c3)s2)nn1` [Example 602, 5-(4-(6-acetamidopyridazin-3-yl)butyl)-N-((5-(trifluoromethyl)pyridin-3-yl)methyl)-1,3,4-thiadiazole-2-carboxamide], the EC50 in assay [1] was less than 100 nM. Further, in assay [2], the IC50 is less than 100 nM.
`CNC(=O)c1nnc(CCCCn2cc(C(=O)NCc3cc(C(F)(F)F)ccn3)nn2)s1` [Example 603, N-methyl-5-(4-(4-(((4-(trifluoromethyl)pyridin-2-yl)methyl)carbamoyl)-1H-1,2,3-triazol-1-yl)butyl)-1,3,4-thiadiazole-2-carboxamide] showed an EC50 in assay [1] of more than 5000 nM. Moreover, the IC50 in assay [2] lay within 500 to 5000 nM.
The like results for `CNC(=O)c1cn(CCCCc2ccc(NC(=O)Cc3cn(-c4cccc(OC(F)(F)F)c4)cn3)nn2)nn1` [Example 604, N-methyl-1-(4-(6-(2-(1-(3-(trifluoromethoxy)phenyl)-1H-imidazol-4-yl)acetamido)pyridazin-3-yl)butyl)-1H-1,2,3-triazole-4-carboxamide] were, in that order, less than 100 nM and less than 100 nM.
`CNC(=O)c1cn(CCCCc2ccc(NC(=O)Cc3cc(-c4ccccc4C(F)(F)F)ccn3)nn2)nn1` [Example 605, N-methyl-1-(4-(6-(2-(4-(2-(trifluoromethyl)phenyl)pyridin-2-yl)acetamido)pyridazin-3-yl)butyl)-1H-1,2,3-triazole-4-carboxamide] came in with an EC50 in assay [1] of less than 100 nM. Further, the IC50 in assay [2] was less than 100 nM.

For orientation: EC50 means the concentration giving half of the maximal effect. Read a low EC50 as a more potent agent. By IC50 is commonly meant the concentration that inhibits the measured activity by half.
